# Results taken from PubChem BioAssay (NCI).
#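 Protocol summary: plate cells (96-well), add compound at 5 concentrations, incubate 48 h, interpolate endpoints linearly. GI50 is the concentration that inhibits growth by half. Definition used: TGI = concentration required for complete inhibition of growth.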
# Legend:
# Experiment in all cases: DTP human tumour cell line panel, 48 h
# UO-31 renal = tested on: UO-31 renal
# MOLT-4 leukemia = tested on: MOLT-4 leukemia
# SN12C renal = tested on: SN12C renal
# MDA-MB-231 breast = tested on: MDA-MB-231 breast
# DU-145 prostate = tested on: DU-145 prostate
# SNB-75 CNS = tested on: SNB-75 CNS
# KM12 colon = tested on: KM12 colon
# BT-549 breast = tested on: BT-549 breast
# CCRF-CEM leukemia = tested on: CCRF-CEM leukemia
# A549 NSCLC = tested on: A549 NSCLC
# SK-MEL-5 melanoma = tested on: SK-MEL-5 melanoma
# NCI-H23 lung = tested on: NCI-H23 lung
# NCI-H522 lung = tested on: NCI-H522 lung
# SF-539 CNS = tested on: SF-539 CNS
# HOP-92 NSCLC = tested on: HOP-92 NSCLC
# HCT-15 colon = tested on: HCT-15 colon
# TK-10 renal = tested on: TK-10 renal
# MDA-MB-435 = tested on: MDA-MB-435
# MCF7 breast = tested on: MCF7 breast
# LOX IMVI melanoma = tested on: LOX IMVI melanoma
# EKVX NSCLC = tested on: EKVX NSCLC
# M14 melanoma = tested on: M14 melanoma
# SK-MEL-2 melanoma = tested on: SK-MEL-2 melanoma
# UACC-62 melanoma = tested on: UACC-62 melanoma
# HS 578T breast = tested on: HS 578T breast
# ACHN renal = tested on: ACHN renal
# SW-620 colon = tested on: SW-620 colon
# NCI/ADR-RES ovarian = tested on: NCI/ADR-RES ovarian
# MALME-3M melanoma = tested on: MALME-3M melanoma
# T-47D breast = tested on: T-47D breast
# NCI-H460 lung = tested on: NCI-H460 lung
# SF-295 CNS = tested on: SF-295 CNS
# SK-OV-3 ovarian = tested on: SK-OV-3 ovarian
# COLO 205 colon = tested on: COLO 205 colon
# OVCAR-8 ovarian = tested on: OVCAR-8 ovarian
# UACC-257 melanoma = tested on: UACC-257 melanoma
# SF-268 CNS = tested on: SF-268 CNS
# HL-60(TB) leukemia = tested on: HL-60(TB) leukemia
# RPMI-8226 leukemia = tested on: RPMI-8226 leukemia
# OVCAR-3 ovarian = tested on: OVCAR-3 ovarian
# OVCAR-5 ovarian = tested on: OVCAR-5 ovarian
# OVCAR-4 ovarian = tested on: OVCAR-4 ovarian
# RXF 393 renal = tested on: RXF 393 renal
# K-562 leukemia = tested on: K-562 leukemia
# CAKI-1 renal = tested on: CAKI-1 renal
# NCI-H226 lung = tested on: NCI-H226 lung
# SNB-19 CNS = tested on: SNB-19 CNS
# HT29 colon = tested on: HT29 colon
# HCC-2998 colon = tested on: HCC-2998 colon
# U251 CNS = tested on: U251 CNS
# SR leukemia = tested on: SR leukemia
# HOP-62 NSCLC = tested on: HOP-62 NSCLC
# IGROV1 ovarian = tested on: IGROV1 ovarian
# A498 renal = tested on: A498 renal
# SK-MEL-28 melanoma = tested on: SK-MEL-28 melanoma
# 786-0 renal = tested on: 786-0 renal
# HCT-116 colon = tested on: HCT-116 colon
# PC-3 prostate = tested on: PC-3 prostate
smiles,measurement,setting,value
CC(C)CCC[C@@H](C)[C@H]1CCC2C3=CCn4c(=O)ccc(=O)n4C3CC[C@@]21C (some centres not stated),GI50,UO-31 renal,0.354 µM
same,TGI,UO-31 renal,1.48 µM
same,GI50,MOLT-4 leukemia,0.545 µM
same,TGI,MOLT-4 leukemia,4.13 µM
same,GI50,SN12C renal,0.624 µM
same,TGI,SN12C renal,2.03 µM
same,GI50,MDA-MB-231 breast,1.18 µM
same,TGI,MDA-MB-231 breast,2.72 µM
same,GI50,DU-145 prostate,1.24 µM
same,TGI,DU-145 prostate,2.52 µM
same,GI50,SNB-75 CNS,1.01 µM
same,TGI,SNB-75 CNS,2.18 µM
same,GI50,KM12 colon,0.639 µM
same,TGI,KM12 colon,1.8 µM
same,GI50,BT-549 breast,0.241 µM
same,TGI,BT-549 breast,1.14 µM
same,GI50,CCRF-CEM leukemia,0.453 µM
same,TGI,CCRF-CEM leukemia,> 100 µM
same,GI50,A549 NSCLC,0.325 µM
same,TGI,A549 NSCLC,1.24 µM
same,GI50,SK-MEL-5 melanoma,0.844 µM
same,TGI,SK-MEL-5 melanoma,2.15 µM
same,GI50,NCI-H23 lung,1.63 µM
same,TGI,NCI-H23 lung,4.18 µM
same,GI50,NCI-H522 lung,0.451 µM
same,TGI,NCI-H522 lung,1.17 µM
same,GI50,SF-539 CNS,1.43 µM
same,TGI,SF-539 CNS,2.79 µM
same,GI50,HOP-92 NSCLC,0.24 µM
same,TGI,HOP-92 NSCLC,1.39 µM
same,GI50,HCT-15 colon,0.432 µM
same,TGI,HCT-15 colon,2.05 µM
same,GI50,TK-10 renal,0.421 µM
same,TGI,TK-10 renal,1.43 µM
same,GI50,MDA-MB-435,0.599 µM
same,TGI,MDA-MB-435,2.03 µM
same,GI50,MCF7 breast,0.341 µM
same,TGI,MCF7 breast,1.4 µM
same,GI50,LOX IMVI melanoma,0.482 µM
same,TGI,LOX IMVI melanoma,1.49 µM
same,GI50,EKVX NSCLC,1.24 µM
same,TGI,EKVX NSCLC,2.94 µM
same,GI50,M14 melanoma,0.436 µM
same,TGI,M14 melanoma,1.44 µM
same,GI50,SK-MEL-2 melanoma,0.557 µM
same,TGI,SK-MEL-2 melanoma,1.46 µM
same,GI50,UACC-62 melanoma,0.483 µM
same,TGI,UACC-62 melanoma,1.93 µM
same,GI50,HS 578T breast,1.84 µM
same,TGI,HS 578T breast,5.03 µM
same,GI50,ACHN renal,1.16 µM
same,TGI,ACHN renal,2.45 µM
same,GI50,SW-620 colon,0.689 µM
same,TGI,SW-620 colon,1.94 µM
same,GI50,NCI/ADR-RES ovarian,0.602 µM
same,TGI,NCI/ADR-RES ovarian,2.35 µM
same,GI50,MALME-3M melanoma,1.4 µM
same,TGI,MALME-3M melanoma,2.92 µM
same,GI50,T-47D breast,0.266 µM
same,TGI,T-47D breast,1.6 µM
same,GI50,NCI-H460 lung,0.886 µM
same,TGI,NCI-H460 lung,2.35 µM
same,GI50,SF-295 CNS,0.352 µM
same,TGI,SF-295 CNS,1.28 µM
same,GI50,SK-OV-3 ovarian,1.78 µM
same,TGI,SK-OV-3 ovarian,3.17 µM
same,GI50,COLO 205 colon,0.449 µM
same,TGI,COLO 205 colon,1.14 µM
same,GI50,OVCAR-8 ovarian,0.485 µM
same,TGI,OVCAR-8 ovarian,7.55 µM
same,GI50,UACC-257 melanoma,0.433 µM
same,TGI,UACC-257 melanoma,1.55 µM
same,GI50,SF-268 CNS,1.46 µM
same,TGI,SF-268 CNS,2.87 µM
same,GI50,HL-60(TB) leukemia,0.113 µM
same,TGI,HL-60(TB) leukemia,0.49 µM
same,GI50,RPMI-8226 leukemia,0.243 µM
same,TGI,RPMI-8226 leukemia,1.01 µM
same,GI50,OVCAR-3 ovarian,0.74 µM
same,TGI,OVCAR-3 ovarian,2 µM
same,GI50,OVCAR-5 ovarian,1.16 µM
same,TGI,OVCAR-5 ovarian,2.71 µM
same,GI50,OVCAR-4 ovarian,0.91 µM
same,TGI,OVCAR-4 ovarian,2.3 µM
same,GI50,RXF 393 renal,0.717 µM
same,TGI,RXF 393 renal,2.31 µM
same,GI50,K-562 leukemia,0.309 µM
same,TGI,K-562 leukemia,2.02 µM
same,GI50,CAKI-1 renal,0.46 µM
same,TGI,CAKI-1 renal,1.21 µM
same,GI50,NCI-H226 lung,1.43 µM
same,TGI,NCI-H226 lung,3.32 µM
same,GI50,SNB-19 CNS,1.59 µM
same,TGI,SNB-19 CNS,3.02 µM
same,GI50,HT29 colon,0.575 µM
same,TGI,HT29 colon,2.06 µM
same,GI50,HCC-2998 colon,0.708 µM
same,TGI,HCC-2998 colon,2.03 µM
same,GI50,U251 CNS,0.645 µM
same,TGI,U251 CNS,1.84 µM
same,GI50,SR leukemia,0.137 µM
same,TGI,SR leukemia,0.758 µM
same,GI50,HOP-62 NSCLC,1.34 µM
same,TGI,HOP-62 NSCLC,2.76 µM
same,GI50,IGROV1 ovarian,0.698 µM
same,TGI,IGROV1 ovarian,2.5 µM
same,GI50,A498 renal,1.26 µM
same,TGI,A498 renal,2.54 µM
same,GI50,SK-MEL-28 melanoma,0.837 µM
same,TGI,SK-MEL-28 melanoma,2.1 µM
same,GI50,786-0 renal,0.921 µM
same,TGI,786-0 renal,2.18 µM
same,GI50,HCT-116 colon,0.22 µM
same,TGI,HCT-116 colon,0.645 µM
same,GI50,PC-3 prostate,0.367 µM
same,TGI,PC-3 prostate,1.59 µM
Brc1ccc2[nH]cc([C@H]3CN[C@@H](c4c[nH]c5ccc(Br)cc45)CN3)c2c1,TGI,UO-31 renal,5.29 µM
same,TGI,MOLT-4 leukemia,4.95 µM
same,TGI,SN12C renal,9.89 µM
same,GI50,MDA-MB-231 breast,1.85 µM
same,TGI,MDA-MB-231 breast,3.81 µM
same,TGI,DU-145 prostate,5.25 µM
same,GI50,SNB-75 CNS,1.5 µM
same,TGI,SNB-75 CNS,8.46 µM
same,TGI,KM12 colon,3.25 µM
same,TGI,BT-549 breast,> 62 µM
same,TGI,CCRF-CEM leukemia,6.11 µM
same,TGI,A549 NSCLC,7.17 µM
same,TGI,SK-MEL-5 melanoma,6.77 µM
same,TGI,NCI-H23 lung,3.62 µM
same,TGI,NCI-H522 lung,3.27 µM
same,TGI,SF-539 CNS,4.06 µM
same,TGI,HOP-92 NSCLC,6.05 µM
same,TGI,HCT-15 colon,3.81 µM
same,TGI,TK-10 renal,4.78 µM
same,TGI,MDA-MB-435,3.18 µM
same,TGI,MCF7 breast,3.3 µM
same,TGI,LOX IMVI melanoma,2.82 µM
same,TGI,EKVX NSCLC,6.46 µM
same,TGI,M14 melanoma,3.38 µM
same,TGI,SK-MEL-2 melanoma,5.54 µM
same,TGI,UACC-62 melanoma,> 45.9 µM
same,TGI,HS 578T breast,28.2 µM
same,TGI,ACHN renal,5.01 µM
same,TGI,SW-620 colon,> 22.1 µM
same,TGI,NCI/ADR-RES ovarian,4.52 µM
same,GI50,MALME-3M melanoma,2.79 µM
same,TGI,MALME-3M melanoma,15 µM
same,GI50,T-47D breast,3.62 µM
same,TGI,T-47D breast,18 µM
same,GI50,NCI-H460 lung,3.04 µM
same,TGI,NCI-H460 lung,16.3 µM
same,GI50,SF-295 CNS,12.2 µM
same,TGI,SF-295 CNS,27.6 µM
same,TGI,SK-OV-3 ovarian,> 23.5 µM
same,TGI,COLO 205 colon,3.24 µM
same,TGI,OVCAR-8 ovarian,3.7 µM
same,GI50,UACC-257 melanoma,7.39 µM
same,TGI,UACC-257 melanoma,21.4 µM
same,TGI,SF-268 CNS,9.05 µM
same,TGI,HL-60(TB) leukemia,4.08 µM
same,TGI,RPMI-8226 leukemia,6.04 µM
same,TGI,OVCAR-3 ovarian,3.8 µM
same,GI50,OVCAR-5 ovarian,3.25 µM
same,TGI,OVCAR-5 ovarian,12 µM
same,TGI,OVCAR-4 ovarian,4.44 µM
same,TGI,RXF 393 renal,> 25.4 µM
same,TGI,K-562 leukemia,4.54 µM
same,TGI,CAKI-1 renal,4.88 µM
same,TGI,NCI-H226 lung,7.76 µM
same,TGI,SNB-19 CNS,> 23.9 µM
same,TGI,HT29 colon,4.68 µM
same,TGI,HCC-2998 colon,3.17 µM
same,TGI,U251 CNS,5.02 µM
same,TGI,SR leukemia,5.2 µM
same,TGI,HOP-62 NSCLC,> 41.2 µM
same,TGI,IGROV1 ovarian,3.78 µM
same,TGI,A498 renal,4.53 µM
same,TGI,SK-MEL-28 melanoma,> 52.6 µM
same,TGI,786-0 renal,5.68 µM
same,TGI,HCT-116 colon,4.68 µM
same,TGI,PC-3 prostate,5.27 µM
